One assay deals with human MEK1 (Homo sapiens, UniProt Q02750). In words: MEK-1 Enzyme Assay (LANCE-HTRF). Conditions: 100 nM MEK1, 15 μM ATP, 300 nM ERK2, two hours; read-out: MEK inhibition. The assay is classed as biochemical. The protocol: Assay 1: MEK-1 Enzyme Assay (LANCE-HTRF)
The activity of the compounds of the present invitation may be determined by the following procedure; Inhibition of human MEK1 kinase activity was monitored with a homogenous, fluorescence based assay. The assay uses time resolved fluorescence resonance energy transfer to probe for phosphorylation of ERK1 by MEK1. The assay is carried out in low volume 96 well microtiterplates. […] After two hours, 5 nM Europium-anti-PY20 (Perkin Elmer) and 50 nM Anti-GST-Allophycocyanin (CisBio) in buffer containing 50 mM EDTA and 0.05% BSA are added and the reaction incubated for one hour in the dark. Time-resolved fluorescence is measured using a LJL-Analyst (Molecular Devices) with an excitation wavelength of 340 nm and an emission wavelength of 665 nm. The final concentration of DMSO is 2%.
(In TR-FRET formats the signal depends on donor and acceptor labels being close together.)

Another assay relates to Murine colon C26 cells. In words: Tumor cell proliferation assay (ATP Lite), C26. Type of assay: cell-based. Conditions: Mus musculus, 96 h, 4 days. The protocol: (§1) Assay 2: Tumor Cell Proliferation Assays (ATP Lite)
(§2) Murine colon C26, human melanoma A375 and MeI5 or human pancreatic MiaPaCa-2 cells were plated in 96 well Corning white plates (1500 cells/well for C26, and 2000 cells/well for A375, and MiaPaCa-2) and cultured overnight at 37° C. in 5% CO2. Inhibitors were serially diluted in 100% DMSO and subsequently added to cells to reach a final concentration of 0.25% DMSO. The cells were incubated for 4 days in the presence of test compounds in cell growth media (DMEM with 10% fetal bovine serum, 2 mM glutamine for C26, and MiaPaCa-2, and RPMI with 10% fetal bovine serum, 2 mM glutamine for A375). Cell proliferation was quantitated using the ATP lite cell proliferation kit (Packard). Columns 4-6 show the concentration of compounds required to induce 50% cell death (IC50 in μM) of […]. With “+” meaning 3 μM<IC50≦10 μM and “++” IC50≦3 μM and “n.d.” means not determined. Few compounds were also tested on human melanoma cell MeI5.

The subject of assay [1] is human melanoma A375 cells. In words: Tumor cell proliferation assay (ATP Lite), A375. Type of assay: cell-based. Conditions: A-375, 96 h, 4 days. The protocol: as §1, §2
Assay [2] concerns human pancreatic MiaPaCa-2 cells. In words: Tumor cell proliferation assay (ATP Lite), MiaPaCa-2. Type of assay: cell-based. The conditions noted are these: MIA PaCa-2, 96 h, 4 days. The protocol: as §1, §2

Experimental findings from US8524911B2, “3-arylamino pyridine derivatives” (Merck Serono SA, priority 2004, dated 2013) are described below.

Sequence of human MEK1 (Q02750 whole entry): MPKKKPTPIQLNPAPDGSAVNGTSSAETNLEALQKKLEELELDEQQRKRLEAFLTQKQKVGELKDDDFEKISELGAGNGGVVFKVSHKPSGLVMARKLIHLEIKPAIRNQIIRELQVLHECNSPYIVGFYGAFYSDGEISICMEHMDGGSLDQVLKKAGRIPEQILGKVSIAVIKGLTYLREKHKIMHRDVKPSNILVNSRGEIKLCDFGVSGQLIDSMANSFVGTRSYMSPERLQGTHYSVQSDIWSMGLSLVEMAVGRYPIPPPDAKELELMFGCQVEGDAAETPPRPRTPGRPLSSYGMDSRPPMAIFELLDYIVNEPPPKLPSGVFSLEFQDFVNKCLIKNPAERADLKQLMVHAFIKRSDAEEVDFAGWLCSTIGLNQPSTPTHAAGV

On to `COc1cccc(C(=O)NNC(=O)c2ccncc2Nc2ccc(I)cc2F)c1` [Example 55, 3-[(2-fluoro-4-iodophenyl)amino]-N′-(3-methoxybenzoyl)-isonicotinohydrazide], for which the IC50 on human MEK1 was below 1000 nM; with Murine colon C26 cells it was 3 to 10 µM; in assay [1] it was at most 3 µM; in assay [2], 3 to 10 µM.

Regarding `NNC(=O)c1ccncc1Nc1ccc(I)cc1F` [Example 51, 3-[(2-fluoro-4-iodophenyl)amino]isonicotinohydrazide], the IC50 is below 1000 nM at human MEK1, 3 to 10 µM in the assay with Murine colon C26 cells, at most 3 µM in assay [1] and at most 3 µM in assay [2].

As for `O=C(NCCCN1CCCC1=O)c1ccncc1Nc1ccc(I)cc1F` [Example 30, 3-[(2-fluoro-4-iodophenyl)amino]-N-[3-(2-oxopyrrolidin-1-yl)propyl]isonicotinamide], the IC50 on human MEK1 is below 1000 nM; in the assay on Murine colon C26 cells, at most 3 µM; in assay [1] it was at most 3 µM; in assay [2] it was at most 3 µM.

For `O=C(NNc1cc(C(F)(F)F)cc(C(F)(F)F)c1)c1ccncc1Nc1ccc(I)cc1F` [Example 101], the IC50 at human MEK1 is below 1000 nM; in the assay with Murine colon C26 cells it was 3 to 10 µM; in assay [1] it was at most 3 µM; in assay [2], 3 to 10 µM.

Regarding `O=C(NCCN1CCOCC1)c1ccncc1Nc1ccc(I)cc1F` [Example 13, 3-(2-Fluoro-4-iodo-phenylamino)-N-(2-morpholin-4-yl-ethyl)-isonicotinamide], the IC50 on human MEK1 is below 1000 nM; in the assay on Murine colon C26 cells, at most 3 µM; in assay [1] it was at most 3 µM; in assay [2], at most 3 µM.

Consider `O=C(NC1CCC1)c1ccncc1Nc1ccc(I)cc1F` [Example 58, N-cyclobutyl-3-[(2-fluoro-4-iodophenyl)amino]isonicotinamide], for which the IC50 was below 1000 nM at human MEK1, at most 3 µM with Murine colon C26 cells, at most 3 µM in assay [1] and at most 3 µM in assay [2].

For the compound `CC(=O)NCCNC(=O)c1ccncc1Nc1ccc(I)cc1Cl` [Example 64, N-(2-Acetylamino-ethyl)-3-(2-chloro-4-iodo-phenylamino)-isonicotinamide], the IC50 is below 1000 nM at human MEK1, 3 to 10 µM with Murine colon C26 cells, at most 3 µM in assay [1] and 3 to 10 µM in assay [2].

Turning to `O=C(NOCc1ccccc1)c1ccncc1Nc1ccc(I)cc1Cl` [Example 81, N-Benzyloxy-3-(2-chloro-4-iodo-phenylamino)-isonicotinamide], the IC50 at human MEK1 is below 1000 nM; in the assay with Murine colon C26 cells, 3 to 10 µM; in assay [1], at most 3 µM; in assay [2], 3 to 10 µM.

On to `COCCN(C)C(=O)c1ccncc1Nc1ccc(I)cc1F` [Example 24, 3-[(2-fluoro-4-iodophenyl)amino]-N-(2-methoxyethyl)-N-methyl-isonicotinamide], for which the IC50 at human MEK1 was below 1000 nM; with Murine colon C26 cells, at most 3 µM; in assay [1] it was at most 3 µM; in assay [2] it was at most 3 µM.

In the case of `O=C(NCCCO)c1cc(Br)ncc1Nc1ccc(I)cc1F` [Example 70, 2-Bromo-5-(2-fluoro-4-iodo-phenylamino)-N-(3-hydroxy-propyl)-isonicotinamide], the IC50 at human MEK1 was below 1000 nM; in the assay on Murine colon C26 cells, at most 3 µM; in assay [1], at most 3 µM; in assay [2] it was at most 3 µM.

With `COCCNC(=O)c1cc(Br)ncc1Nc1ccc(I)cc1F` [Example 87, 2-Bromo-5-(2-fluoro-4-iodo-phenylamino)-N-(2-methoxy-ethyl)-isonicotinamide], the IC50 is below 1000 nM at human MEK1, at most 3 µM in assay [1] and 3 to 10 µM in assay [2].

As for `CC(C)C(C)NC(=O)c1ccncc1Nc1ccc(I)cc1F` (stereo not shown) [Example 62, N-(1,2-dimethylpropyl)-3-[(2-fluoro-4-iodophenyl)amino]-isonicotinamide], the IC50 at human MEK1 is below 1000 nM; in the assay on Murine colon C26 cells, 3 to 10 µM; in assay [1] it was at most 3 µM.

As for `CONC(=O)c1ccncc1Nc1ccc(I)cc1Cl` [Example 80, N-methoxy-3-(2-chloro-4-iodo-phenylamino)-isonicotinamide], the IC50 at human MEK1 was below 1000 nM; in assay [1] it was at most 3 µM; in assay [2], 3 to 10 µM.
